From patent EP4745118A1, “HYDROXAMIC ACID COMPOUND OR PHARMACEUTICALLY ACCEPTABLE SALT THEREOF, AND USE THEREOF AND PREPARATION METHOD THEREFOR” (priority 2023, dated 2025)
In brackets after ≈: the same amount, converted by molar mass. Read-outs that look alike come from different tables or passages of the source.

Tests used:
Assay in all cases: In vitro antibacterial activity, agar dilution method (MIC)
Type in all cases: cell-based
[1] = test system: Pantoea agglomerans
Summary of the method: (§1)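 CLSI agar dilution: broth cultures adjusted to 0.5 McFarland (~1-2 × 10^8 CFU/mL), diluted 10-fold, then multipoint-inoculated at ~10^4 CFU/spot onto drug-containing agar plates. After 18 h at 35°C, MIC was taken as the lowest drug concentration on plates showing no growth.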

[2] = test system: Pseudomonas aeruginosa
Summary of the method: as §1

[3] = test system: Proteus mirabilis
Summary of the method: as §1

[4] = test system: Enterobacter aerogenes
Summary of the method: as §1

[5] = test system: Klebsiella pneumoniae
Summary of the method: as §1

[6] = test system: Citrobacter freundii
Summary of the method: as §1

[7] = test system: Serratia marcescens
Summary of the method: as §1

[8] = test system: Shigella flexneri; settings: 18 hours
Method: According to the relevant operating procedures of the Clinical Laboratory Standards Institute (CLSI) in the United States, an antimicrobial susceptibility testing was conducted using the agar dilution method. A 1920 µg/mL stock solution was serially diluted twofold with sterile water to obtain dilutions of 960, 480, 240, 120, 60, 30, 15, 7.5, 3.75, 1.88, 0.94, 0.47 µg/mL, and 1 mL of the dilution was taken respectively from the dilutions with different concentrations and added to a Petri dish, to which 14 mL of melted MH agar medium was added and mixed thoroughly, and the final concentration of the drug in the petri dish is 128, 64, 32, 16, 8, 4, 2, 1, 0.5, 0.25, 0.12, 0.06, and 0.03 µ g/mL, respectively. The agar was allowed to solidify and set aside for later use.
The test bacteria were propagated in broth and adjusted to a turbidity of 0.5 McFarland (approximately 1-2 × 10^8 CFU/mL) using a turbidimeter before inoculation. The 0.5 McFarland bacterial solution was then diluted 10-fold in broth (approximately 1-2 × 10^7 CFU/mL). A multipoint inoculator was used to inoculate the above bacterial solution onto a series of plates containing different concentrations of drugs (with an inoculation amount of approximately 10^4 CFU per inoculation site). After incubation at a constant temperature of 35°C for 18 hours, results were observed. The minimum concentration of drugs contained in sterile growth plates was determined as the Minimal Inhibitory Concentration (MIC).

[9] = Pantoea agglomerans, ATCC27993, 18 h
[10] = Pseudomonas aeruginosa, PAO1, 18 h
[11] = Proteus mirabilis, ATCC49565, 18 h
[12] = Klebsiella aerogenes, ATCC13048, 18 h
[13] = Klebsiella pneumoniae, 18 h, Klebsiella pneumoniae 09-20 (mcr-1), agar dilution, 35°C
[14] = Klebsiella pneumoniae, 18 h, Klebsiella pneumoniae 17-R27 (CRE), agar dilution, 35°C
[15] = Klebsiella pneumoniae, 18 h, Klebsiella pneumoniae 18-8 (ESBLs-producing), agar dilution, 35°C, 18 hours, read-out: MIC
[16] = Klebsiella pneumoniae, ATCC700603, 18 h, Klebsiella pneumoniae ATCC 700603 (ESBLs-producing), agar dilution, 35°C, 18 hours, read-out: MIC
[17] = Klebsiella pneumoniae, ATCCBAA2146, 18 h, Klebsiella pneumoniae ATCC BAA-2146 (CRE, NDM-1-producing), agar dilution, 35°C, 18 hours
[18] = Citrobacter freundii, ATCC43864, 18 h
[19] = Serratia marcescens, ATCC21074, 18 h
[20] = ATCC12022, Shigella flexneri ATCC 12022, 35°C, read-out: MIC
[21] = ATCC27993, Pantoea agglomerans ATCC 27993, agar dilution, 35°C, 18 hours, read-out: MIC
[22] = Pseudomonas aeruginosa PAO1, agar dilution, 35°C, 18 hours, read-out: MIC
[23] = ATCC49565, Proteus mirabilis ATCC 49565, agar dilution, 35°C, 18 hours, read-out: MIC
[24] = Klebsiella aerogenes, ATCC13048, Enterobacter aerogenes ATCC 13048, agar dilution, 35°C, 18 hours, read-out: MIC
[25] = Klebsiella pneumoniae, 18 h, Klebsiella pneumoniae 09-20 (mcr-1), agar dilution, 35°C, 18 hours, read-out: MIC
[26] = Klebsiella pneumoniae, 18 h, Klebsiella pneumoniae 17-R27 (CRE), agar dilution, 35°C, 18 hours, read-out: MIC
[27] = Klebsiella pneumoniae, ATCCBAA2146, 18 h, Klebsiella pneumoniae ATCC BAA-2146 (CRE, NDM-1-producing), agar dilution, 35°C, 18 hours, read-out: MIC
[28] = ATCC43864, Citrobacter freundii ATCC 43864, agar dilution, 35°C, 18 hours, read-out: MIC
[29] = ATCC21074, Serratia marcescens ATCC 21074, agar dilution, 35°C, 18 hours, read-out: MIC

Row | SMILES | MIC [5, 15] [µg/mL] | MIC [5, 16] [µg/mL] | MIC [8, 20] [µg/mL] | MIC [1, 21] [µg/mL] | MIC [2, 22] [µg/mL] | MIC [3, 23] [µg/mL] | MIC [4, 24] [µg/mL] | MIC [5, 25] [µg/mL] | MIC [5, 26] [µg/mL] | MIC [5, 27] [µg/mL] | MIC [6, 28] [µg/mL] | MIC [7, 29] [µg/mL] | other results
1 | COCC1CC1C#CC#Cc1ccc(C(=O)NC(C(=O)NO)C(C)(C)N)cc1 (mixture of isomers) [Ia/Ib racemate] |  |  |  |  |  |  |  |  |  |  |  |  | MIC ([1]; Pantoea agglomerans ATCC 27993, agar dilution, 35°C, 18 hours): 1 µg/mL; MIC ([2]; Pseudomonas aeruginosa PAO1, agar dilution, 35°C, 18 hours): 1 µg/mL; MIC ([3]; Proteus mirabilis ATCC 49565, agar dilution, 35°C, 18 hours): 1 µg/mL; MIC ([4]; Enterobacter aerogenes ATCC 13048, agar dilution, 35°C, 18 hours): 1 µg/mL; MIC ([5]; Klebsiella pneumoniae 09-20 (mcr-1), agar dilution, 35°C, 18 hours): 0.5 µg/mL; MIC ([5]; Klebsiella pneumoniae 17-R27 (CRE), agar dilution, 35°C, 18 hours): 1 µg/mL; MIC ([5]; Klebsiella pneumoniae 18-8 (ESBLs-producing), agar dilution, 35°C, 18 hours): 0.5 µg/mL; MIC ([5]; Klebsiella pneumoniae ATCC 700603 (ESBLs-producing), agar dilution, 35°C, 18 hours): 2 µg/mL; MIC ([5]; Klebsiella pneumoniae ATCC BAA-2146 (CRE, NDM-1-producing), agar dilution, 35°C, 18 hours): 2 µg/mL; MIC ([6]; Citrobacter freundii ATCC 43864, agar dilution, 35°C, 18 hours): 0.25 µg/mL; MIC ([7]; Serratia marcescens ATCC 21074, agar dilution, 35°C, 18 hours): 0.25 µg/mL; MIC ([8]; Shigella flexneri ATCC 12022, 35°C): 0.12 µg/mL
2 | CC(C)(N)[C@H](NC(=O)c1ccc(C#CC#C[C@@H]2C[C@H]2CO)cc1)C(=O)NO [ACHN-975] | 1 (≈ 2.71 µM) | 4 (≈ 10.8 µM) | 0.12 (≈ 0.325 µM) |  |  |  |  |  |  |  |  |  | MIC [1, 9]: 4 µg/mL (≈ 10.8 µM); MIC [2, 10]: 0.25 µg/mL (≈ 0.677 µM); MIC [3, 11]: 2 µg/mL (≈ 5.41 µM); MIC [4, 12]: 1 µg/mL (≈ 2.71 µM); MIC [5, 13]: 1 µg/mL (≈ 2.71 µM); MIC [5, 14]: 2 µg/mL (≈ 5.41 µM); MIC [5, 17]: 4 µg/mL (≈ 10.8 µM); MIC [6, 18]: 0.5 µg/mL (≈ 1.35 µM); MIC [7, 19]: 0.25 µg/mL (≈ 0.677 µM)
3 | CO[C@H]1CCC[C@@H]1C#CC#Cc1ccc(C(=O)N[C@H](C(=O)NO)C(C)(C)N)cc1 [A] | 0.5 (≈ 1.26 µM) | 8 (≈ 20.1 µM) | 0.25 (≈ 0.629 µM) | 2 (≈ 5.03 µM) | 2 (≈ 5.03 µM) | 1 (≈ 2.52 µM) | 0.5 (≈ 1.26 µM) | 1 (≈ 2.52 µM) | 1 (≈ 2.52 µM) | 8 (≈ 20.1 µM) | 0.25 (≈ 0.629 µM) | 0.25 (≈ 0.629 µM) | 
4 | COC[C@@H]1C[C@H]1C#CC#Cc1ccc(C(=O)N[C@H](C(=O)NO)C(C)(C)N)cc1 [Ia, N-(S)-3-amino-1-hydroxyamino-3-methyl-1-oxobutan-2-yl-4-[[(1R,2R)-2-(methoxymethylene)cyclopropyl]but-1,3-diynyl]benzamide] | 0.06 (≈ 0.156 µM) | 1 (≈ 2.61 µM) | 0.06 (≈ 0.156 µM) | 0.5 (≈ 1.3 µM) | 0.5 (≈ 1.3 µM) | 0.25 (≈ 0.652 µM) | 0.5 (≈ 1.3 µM) | 0.25 (≈ 0.652 µM) | 0.5 (≈ 1.3 µM) | 1 (≈ 2.61 µM) | 0.25 (≈ 0.652 µM) | 0.25 (≈ 0.652 µM) | 
5 | COC[C@H]1C[C@@H]1C#CC#Cc1ccc(C(=O)N[C@H](C(=O)NO)C(C)(C)N)cc1 [Ib, N-(S)-3-amino-1-hydroxyamino-3-methyl-1-oxobutan-2-yl-4-[[(1S,2S)-2-(methoxymethylene)cyclopropyl]but-1,3-diynyl]benzamide] |  |  | 0.12 (≈ 0.313 µM) |  |  |  |  |  |  |  |  |  | MIC [1, 9]: 1 µg/mL (≈ 2.61 µM); MIC [2, 10]: 1 µg/mL (≈ 2.61 µM); MIC [3, 11]: 1 µg/mL (≈ 2.61 µM); MIC [4, 12]: 0.5 µg/mL (≈ 1.3 µM); MIC ([5]; Klebsiella pneumoniae, 18 h): 0.5 µg/mL (≈ 1.3 µM); MIC [5, 13]: 0.5 µg/mL (≈ 1.3 µM); MIC [5, 14]: 0.25 µg/mL (≈ 0.652 µM); MIC ([5]; Klebsiella pneumoniae, ATCC700603, 18 h): 1 µg/mL (≈ 2.61 µM); MIC [5, 17]: 2 µg/mL (≈ 5.22 µM); MIC [6, 18]: 0.25 µg/mL (≈ 0.652 µM); MIC [7, 19]: 0.25 µg/mL (≈ 0.652 µM)
6 | COC[C@H]1C[C@H]1C#CC#Cc1ccc(C(=O)N[C@H](C(=O)NO)C(C)(C)N)cc1 [Ic, N-(S)-3-amino-1-hydroxyamino-3-methyl-1-oxobutan-2-yl-4-[[(1R,2S)-2-(methoxymethylene)cyclopropyl]but-1,3-diynyl]benzamide] | 0.06 (≈ 0.156 µM) | 1 (≈ 2.61 µM) | 0.06 (≈ 0.156 µM) | 0.5 (≈ 1.3 µM) | 0.5 (≈ 1.3 µM) | 0.5 (≈ 1.3 µM) | 0.5 (≈ 1.3 µM) | 0.25 (≈ 0.652 µM) | 0.5 (≈ 1.3 µM) | 2 (≈ 5.22 µM) | 0.25 (≈ 0.652 µM) | 0.25 (≈ 0.652 µM) | 
7 | COC[C@@H]1C[C@@H]1C#CC#Cc1ccc(C(=O)N[C@H](C(=O)NO)C(C)(C)N)cc1 [Id, N-(S)-3-amino-1-hydroxyamino-3-methyl-1-oxobutan-2-yl-4-[[(1S,2R)-2-(methoxymethylene)cyclopropyl]but-1,3-diynyl]benzamide] | 0.5 (≈ 1.3 µM) | 2 (≈ 5.22 µM) | 0.06 (≈ 0.156 µM) | 1 (≈ 2.61 µM) | 1 (≈ 2.61 µM) | 1 (≈ 2.61 µM) | 0.5 (≈ 1.3 µM) | 0.5 (≈ 1.3 µM) | 0.5 (≈ 1.3 µM) | 2 (≈ 5.22 µM) | 0.25 (≈ 0.652 µM) | 0.25 (≈ 0.652 µM) | 
